Assay results as given in publication PMC4857087, “A potential adjuvant chemotherapeutics, 18β-glycyrrhetinic acid, inhibits renal tubular epithelial cells apoptosis via enhancing BMP-7 epigenetically through targeting HDAC2” (Scientific Reports, 2016).

What was measured:
HK2 = test: cells; set-up: species or system mTEC; antiproliferative activity on renal tubular epithelial cells, 48 h; conditions: Homo sapiens, HK-2, 48 h
Experimental: GA could be transformed into 18β-glycyrrhetinic acid (18βGA) via biotransformation. At first, compounds GA and 18βGA were evaluated for their antiproliferative activities against mTEC and HK2 cell lines. The cells were allowed to proliferate in the presence of tested material for 48 h, and the results were reported in terms of IC50 values (Supplementary Table S2). […] Thus we chose GA 0.05, 0.1, 0.2, 0.4, 0.8 mM and 18βGA 2.5, 5, 10, 20, 30 μM to further evaluate the roles on KIM-1. […] Thus, 18βGA was chosen to discuss the mechanisms in AKI induced by CP. Cisplatin (CP), glycyrrhizic acid ammonium salt (GA), 18β-glycyrrhetinic acid (18βGA), Dimethyl sulfoxide (DMSO), MTT (3-(4, 5-dimethylthiazol-2-yl)-2, 5-diphenyltetrazoliumbromide) and all other chemicals were obtained from Sigma-Aldrich (St. Louis, MO, USA). BMP-7, KIM-1, Bcl-2 and Bax antibodies were purchased from Santa Cruz (CA, USA). β-actin antibody and secondary antibodies for goat anti-rabbit IgG HRP and rabbit anti-goat IgG HRP were purchased from Bioworld Technology (Nanjing, China). Creatinine (Cr) and Blood Urea Nitrogen (BUN) assay kit were purchased from Siemens (NY, USA).

HDAC2 = HDAC2 (Homo sapiens, UniProt Q92769); test: SPR (Biacore T200, HDAC2 immobilized on CM5 chip, […] Langmuir fit); assay type: binding
Chain of HDAC2 (Q92769 whole entry): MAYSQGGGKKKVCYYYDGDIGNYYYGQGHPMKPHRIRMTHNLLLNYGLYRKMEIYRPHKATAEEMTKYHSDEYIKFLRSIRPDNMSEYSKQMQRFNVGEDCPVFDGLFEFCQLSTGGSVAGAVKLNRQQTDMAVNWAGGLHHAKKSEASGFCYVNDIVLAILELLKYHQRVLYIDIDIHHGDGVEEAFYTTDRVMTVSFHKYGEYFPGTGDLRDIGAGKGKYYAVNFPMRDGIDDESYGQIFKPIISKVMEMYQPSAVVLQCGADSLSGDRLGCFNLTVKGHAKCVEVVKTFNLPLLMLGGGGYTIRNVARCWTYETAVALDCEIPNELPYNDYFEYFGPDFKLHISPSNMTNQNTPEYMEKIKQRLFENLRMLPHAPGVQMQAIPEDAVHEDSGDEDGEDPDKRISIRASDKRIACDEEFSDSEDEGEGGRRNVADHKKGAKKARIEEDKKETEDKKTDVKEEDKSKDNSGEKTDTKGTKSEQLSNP

## CC1(C)[C@@H](O)CC[C@]2(C)[C@H]3C(=O)C=C4[C@@H]5C[C@@](C)(C(=O)O)CC[C@]5(C)CC[C@@]4(C)[C@]3(C)CC[C@@H]12 [18βGA, 18β-glycyrrhetinic acid]
HK2
  IC50: 0.073 mM
HDAC2
  Kd: 0.613 µM
